Tests used:
Type in all cases: in vivo
[1] = test system: Plutella xylostella; assay: Pesticidal test against Plutella xylostella (cabbage leaf dip); conditions: foliar, 144 h, concentration 1 ppm, 2-stage larvae, examined after 6 days, 25° C., read-out: pesticidal rate
Procedure, shortened: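 Cabbage leaf pieces dipped 30 s in test solution at a predetermined concentration, air-dried, then offered to 2nd-instar larvae, five per group in duplicate. Held at 25° C; living and dead larvae counted after 6 days.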

[2] = test system: Spodoptera litura; assay: Pesticidal test against Spodoptera litura (cabbage leaf dip); conditions: foliar, 144 h, concentration 1 ppm, 2-stage larvae, examined after 6 days, 25° C., read-out: pesticidal rate
Procedure, shortened: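 Cabbage leaf pieces dipped 30 seconds in compound solution at a predetermined concentration and air-dried, then offered to second-stage larvae, five per group in two replicates. Held at 25° C. Living and dead larvae counted after 6 days.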

[3] = test system: Helicoverpa armigera; assay: Pesticidal test against Helicoverpa armigera (cabbage leaf disk dip); conditions: foliar, 72 h, concentration 1 ppm, 2-stage larvae, examined after 3 days, 25° C., read-out: pesticidal rate
Procedure, shortened: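 Cabbage leaf disks were dipped for 30 s in test solution at a set concentration and air-dried. Second-instar larvae were placed one per hole and held at 25 °C, with live and dead counts taken after 3 days. Five larvae per group were tested in two replicates.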

[4] = test system: Musca domestica; assay: Pesticidal test against Musca domestica (petri dish dry film); conditions: 24 h, concentration 100 ppm, female adults, examined after 1 day, 25° C., read-out: pesticidal rate
Procedure, shortened: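 Dry film from 1 ml acetone solution of compound at a predetermined concentration, air-dried in a 9 cm petri dish; female adult flies released and dish capped. Held at 25° C; living and dead counted after 1 day. Five insects per group, two replicates.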

[5] = test system: Blattella germanica; assay: Pesticidal test against Blattella germanica (petri dish dry film); conditions: 24 h, concentration 100 ppm, female adults, examined after 1 day, 25° C., read-out: pesticidal rate
Experimental: Pesticidal Test against Blattella germanica
1 ml of an acetone solution in which a test compound had been prepared at a predetermined concentration was added dropwise to a petri dish having a diameter of 9 cm, and air-dried, and then the female adults of Blattella germanica were released and the petri dish was capped. They were left to stand in a thermostatic chamber at 25° C., and the numbers of the living pests and the dead pests were examined after 1 day. The test was carried out with five larvae per group in two replicates.

[6] = test system: Adoxophyes honmai; assay: Pesticidal test against Adoxophyes honmai (artificial feed dip); conditions: 144 h, 2-stage larvae, examined after 6 days, 25° C., read-out: pesticidal rate
Procedure, shortened: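 Thin artificial feed slices dipped 30 s in test solution at a predetermined concentration, air-dried, then offered to 2nd-stage larvae. Kept at 25° C; live and dead larvae counted after 6 days. Five larvae per group, two replicates.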

[7] = test system: Laodelphax striatellus; assay: Pesticidal test against Laodelphax striatellus (rice seedling spray); conditions: 144 h, concentration 100 ppm, 3-stage larvae, examined after 6 days, 25° C., read-out: pesticidal rate
Procedure, shortened: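 Rice seedlings sprayed with 2.5 ml acetone solution of compound at a predetermined concentration, air-dried, then infested with third-stage Laodelphax striatellus larvae in capped water-containing tubes at 25 °C. Living and dead insects counted after 6 days; ten larvae per group, two replicates.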

O=C(Nc1cccc(C(=O)Nc2c(Br)cc(C(F)(C(F)(F)F)C(F)(F)C(F)(F)F)cc2C(F)(F)F)c1)c1ccc(Cl)nc1 (centres unmarked) [6-389]
≥ 70%: pest or weed control at 1 ppm [1] | pest or weed control at 1 ppm [2] | pest or weed control at 1 ppm [3] | pest or weed control at 100 ppm [4] | pest or weed control at 100 ppm [5] | pest or weed control at 10 ppm ([6]; concentration 10 ppm)

O=C(Nc1c(I)cc(C(F)(C(F)(F)F)C(F)(F)C(F)(F)F)cc1C(F)(F)F)c1cccc(NC(=O)c2cccnc2Cl)c1 (centres unmarked) [6-538]
≥ 70%: pest or weed control at 1 ppm [1] | pest or weed control at 1 ppm [2] | pest or weed control at 1 ppm [3] | pest or weed control at 100 ppm [4] | pest or weed control at 100 ppm [5] | pest or weed control at 1 ppm ([6]; concentration 1 ppm)

O=C(Nc1cccc(C(=O)Nc2c(Br)cc(C(F)(C(F)(F)F)C(F)(F)C(F)(F)F)cc2Br)c1F)c1cccnc1Cl (centres unmarked) [6-1218]
≥ 70%: pest or weed control at 1 ppm [1] | pest or weed control at 1 ppm [2] | pest or weed control at 100 ppm [4] | pest or weed control at 100 ppm [7] | pest or weed control at 100 ppm [5]

O=C(Nc1cccc(C(=O)Nc2c(I)cc(C(F)(C(F)(F)F)C(F)(F)C(F)(F)F)cc2I)c1F)c1ccccc1 (centres unmarked) [6-1338]
≥ 70%: pest or weed control at 1 ppm [1] | pest or weed control at 1 ppm [2] | pest or weed control at 100 ppm [4] | pest or weed control at 100 ppm [7] | pest or weed control at 100 ppm [5]

N#Cc1ccc(C(=O)Nc2cccc(C(=O)Nc3c(I)cc(C(F)(C(F)(F)F)C(F)(F)C(F)(F)F)cc3I)c2F)cc1 (centres unmarked) [6-1359]
≥ 70%: pest or weed control at 1 ppm [1] | pest or weed control at 1 ppm [2] | pest or weed control at 1 ppm [3] | pest or weed control at 100 ppm [4] | pest or weed control at 100 ppm [7] | pest or weed control at 100 ppm [5]

O=C(Nc1cccc(C(=O)Nc2c(Br)cc(C(F)(C(F)(F)F)C(F)(F)F)cc2C(F)(F)F)c1F)c1ccccc1F [6-1575]
≥ 70%: pest or weed control at 1 ppm [1] | pest or weed control at 1 ppm [2] | pest or weed control at 100 ppm [4] | pest or weed control at 100 ppm [7] | pest or weed control at 100 ppm [5]

O=C(Nc1cccc(C(=O)Nc2c(Br)cc(C(F)(C(F)(F)F)C(F)(F)F)cc2C(F)(F)F)c1F)c1ccc(Cl)nc1 [6-1617]
≥ 70%: pest or weed control at 1 ppm [1] | pest or weed control at 1 ppm [2] | pest or weed control at 100 ppm [4] | pest or weed control at 100 ppm [7] | pest or weed control at 100 ppm [5]

O=C(Nc1cccc(C(=O)Nc2c(I)cc(C(F)(C(F)(F)F)C(F)(F)F)cc2C(F)(F)F)c1F)c1ccccc1F [6-1731]
≥ 70%: pest or weed control at 1 ppm [1] | pest or weed control at 1 ppm [2] | pest or weed control at 100 ppm [4] | pest or weed control at 100 ppm [7] | pest or weed control at 100 ppm [5]

O=C(Nc1c(I)cc(C(F)(C(F)(F)F)C(F)(F)F)cc1C(F)(F)F)c1cccc(NC(=O)c2c(F)cccc2F)c1F [6-1752]
≥ 70%: pest or weed control at 1 ppm [1] | pest or weed control at 1 ppm [2] | pest or weed control at 100 ppm [4] | pest or weed control at 100 ppm [7] | pest or weed control at 100 ppm [5]

O=C(Nc1cccc(C(=O)Nc2c(I)cc(C(F)(C(F)(F)F)C(F)(F)F)cc2C(F)(F)F)c1F)c1ccc(Cl)nc1 [6-1773]
≥ 70%: pest or weed control at 1 ppm [1] | pest or weed control at 1 ppm [2] | pest or weed control at 100 ppm [4] | pest or weed control at 100 ppm [7] | pest or weed control at 100 ppm [5]

O=C(Nc1cccc(C(=O)Nc2c(Br)cc(C(F)(C(F)(F)F)C(F)(F)C(F)(F)F)cc2Br)c1)c1cccc(F)c1 (centres unmarked) [6-5905]
≥ 70%: pest or weed control at 1 ppm [1] | pest or weed control at 1 ppm [2] | pest or weed control at 100 ppm [4] | pest or weed control at 100 ppm [7] | pest or weed control at 100 ppm [5]

CN(C(=O)c1cccnc1Cl)c1cccc(C(=O)Nc2c(Br)cc(C(F)(C(F)(F)F)C(F)(F)C(F)(F)F)cc2Br)c1 (centres unmarked) [7-57]
≥ 70%: pest or weed control at 1 ppm [1] | pest or weed control at 1 ppm [2] | pest or weed control at 100 ppm [4] | pest or weed control at 100 ppm [7] | pest or weed control at 100 ppm [5]

CN(C(=O)c1c(F)cccc1F)c1cccc(C(=O)Nc2c(I)cc(C(F)(C(F)(F)F)C(F)(F)F)cc2C(F)(F)F)c1 [7-446]
≥ 70%: pest or weed control at 1 ppm [1] | pest or weed control at 1 ppm [2] | pest or weed control at 100 ppm [4] | pest or weed control at 100 ppm [7] | pest or weed control at 100 ppm [5]

CN(C(=O)c1ccccc1F)c1cccc(C(=O)Nc2c(Br)cc(C(F)(C(F)(F)F)C(F)(F)F)cc2Br)c1F [7-1105]
≥ 70%: pest or weed control at 1 ppm [1] | pest or weed control at 1 ppm [2] | pest or weed control at 100 ppm [4] | pest or weed control at 100 ppm [7] | pest or weed control at 100 ppm [5]

CN(C(=O)c1c(F)cccc1F)c1cccc(C(=O)Nc2c(Br)cc(C(F)(C(F)(F)F)C(F)(F)F)cc2Br)c1F [7-1126]
≥ 70%: pest or weed control at 1 ppm [1] | pest or weed control at 1 ppm [2] | pest or weed control at 100 ppm [4] | pest or weed control at 100 ppm [7] | pest or weed control at 100 ppm [5]

CN(C(=O)c1c(F)cccc1F)c1cccc(C(=O)Nc2c(I)cc(C(F)(C(F)(F)F)C(F)(F)F)cc2I)c1F [7-1282]
≥ 70%: pest or weed control at 1 ppm [1] | pest or weed control at 1 ppm [2] | pest or weed control at 100 ppm [4] | pest or weed control at 100 ppm [7] | pest or weed control at 100 ppm [5]

CN(C(=O)c1cccnc1Cl)c1cccc(C(=O)Nc2c(I)cc(C(F)(C(F)(F)F)C(F)(F)F)cc2I)c1F [7-1296]
≥ 70%: pest or weed control at 1 ppm [1] | pest or weed control at 1 ppm [2] | pest or weed control at 100 ppm [4] | pest or weed control at 100 ppm [7] | pest or weed control at 100 ppm [5]

CN(C(=O)c1ccc(Cl)nc1)c1cccc(C(=O)Nc2c(I)cc(C(F)(C(F)(F)F)C(F)(F)C(F)(F)F)cc2I)c1F (centres unmarked) [7-1381]
≥ 70%: pest or weed control at 1 ppm [1] | pest or weed control at 1 ppm [2] | pest or weed control at 100 ppm [4] | pest or weed control at 100 ppm [7] | pest or weed control at 100 ppm [5]

CN(C(=O)c1ccccc1F)c1cccc(C(=O)Nc2c(Br)cc(C(F)(C(F)(F)F)C(F)(F)F)cc2C(F)(F)F)c1F [7-1575]
≥ 70%: pest or weed control at 1 ppm [1] | pest or weed control at 1 ppm [2] | pest or weed control at 100 ppm [4] | pest or weed control at 100 ppm [7] | pest or weed control at 100 ppm [5]

CN(C(=O)c1c(F)cccc1F)c1cccc(C(=O)Nc2c(Br)cc(C(F)(C(F)(F)F)C(F)(F)F)cc2C(F)(F)F)c1F [7-1596]
≥ 70%: pest or weed control at 1 ppm [1] | pest or weed control at 1 ppm [2] | pest or weed control at 100 ppm [4] | pest or weed control at 100 ppm [7] | pest or weed control at 100 ppm [5]

CN(C(=O)c1c(F)cccc1F)c1cccc(C(=O)Nc2c(I)cc(C(F)(C(F)(F)F)C(F)(F)F)cc2C(F)(F)F)c1F [7-1752]
≥ 70%: pest or weed control at 1 ppm [1] | pest or weed control at 1 ppm [2] | pest or weed control at 100 ppm [4] | pest or weed control at 100 ppm [7] | pest or weed control at 100 ppm [5]

CN(C(=O)c1cccnc1Cl)c1cccc(C(=O)Nc2c(I)cc(C(F)(C(F)(F)F)C(F)(F)F)cc2C(F)(F)F)c1F [7-1766]
≥ 70%: pest or weed control at 1 ppm [1] | pest or weed control at 1 ppm [2] | pest or weed control at 100 ppm [4] | pest or weed control at 100 ppm [7] | pest or weed control at 100 ppm [5]

From patent US8686044B2, “Amide derivative, pest control agent containing the amide derivative, and use of the amide derivative” (Mitsui Chemicals Agro, Inc., priority 2008, dated 2014)
